Key:
[1] = tested on: Mouse melanoma B16-F10 cells; assay: Measurement of cell growth activity (MTT), in vitro growth of B16-F10 cells; type: cell-based; details: for CI (Combination Index): median effect analysis; for average growth suppression rate ± standard error: MTT
Description: Mouse melanoma B16-F10 cells (the aforementioned) were cultured in MEM supplemented with 2 mM L-glutamine, 1 mM MEM non-essential amino acids, 1% MEM vitamins, 1 mM pyruvic acid and 5% FCS, and the cells were scraped off from the culture flask every 3-4 days with a cell scraper (No. 3010, manufactured by Coaster), diluted 10-fold and maintained by subculture. In the experiment examining the effect of the test substance on the cell growth, the B16-F10 cells maintained in vitro by subculture were recovered with a cell scraper, suspended in MEM supplemented with 10% FCS at 2×10^5 cells/mL and added to a 96 well microtest plate (Becton Dickinson) at 1×10^4 cells/50 μL/well. Furthermore, 50 μL of a test substance at a 2-fold concentration of the final concentration was added to the well, and cultured in a CO2 incubator (MCO-175, SANYO Electric Co., Ltd.) at 37° C., 5% CO2 95% air for 72 hr.
After culture, 10 mg/mL of MTT [(3-[4,5-Dimethylthiazol-2-yl]-2,5-diphenyl-tetrazolium bromide)] was added at 10 μL/well, which was followed by culture for 3 hr. Thereafter, 100 μL of 10% SDS (sodium dodecylsulfate)—0.01N HCl was added to dissolve the pigment and absorbance at 570 nm was measured with a multilabel counter (1420 ARVO SX, Pharmacia Biotech Corporation). According to the concentration of the test substance, each well was expressed by absorbance, and average value and standard error. Using the well, to which the medium alone was added, as a control, the growth inhibition rate was calculated according to the following formula. [formula] Analysis method: Based on the dose reaction curves of the inventive compound alone treatment group and cisplatin alone treatment group, the combination index (CI) of the action in concomitant use is calculated by median effect analysis (References and [2]). (Results)

[2] = tested on: mouse B16-F10 melanoma cultured cells; assay: Hematogenous pulmonary metastasis after transplantation of mouse B16-F10 melanoma cultured cells into tail vein; type: in vivo; details: for CI (Combination Index): Median Effect Analysis, CI below 1 = synergistic
Description: • (1) Preparation of mouse B16-F10 melanoma cultured cells (hereinafter simply B16-F10) B16-F10 cells (a permission to use was obtained from US M.D. Anderson Cancer Center, Dr. I. Fidler and provided for use from Japanese Foundation for cancer research·cancer chemotherapy center, Dr. […] For experiment, B16-F10 cells were suspended in MEM at 5×10^5 cells/mL and 0.2 mL thereof was transferred into the tail vein of 8-week-old male C57BL/6 mice (8 per group). […] Alzet, model 1002, flow rate […], for use for 14 days), and the osmotic pump was intraperitoneally transplanted into the mice one day before the transplantation of B16-F10 cells. • (3) As regards cisplatin, a preparation for injection (product name: Randa injection) was diluted with physiological saline and intraperitoneally administered once the day after transplantation of B16-F10 cells. As regards etoposide, a preparation for injection (product name: […] injection) was diluted with physiological saline and repeatedly administered intraperitoneally once a day for 5 days starting from one day after transplantation of B16-F10 cells. Paclitaxel was purchased from Sigma chemicals Co., suspended in 0.5% metolose solution and repeatedly administered intraperitoneally once every other day (3 times/week for 2 weeks) starting from one day after transplantation of B16-F10 cells. […] In addition, the values of combination index (CI) of the action in concomitant use analyzed by Median Effect Analysis (References and [2]) with regard to the combination group of the compound of the present invention and the anticancer agent are summarized in Table 3 and Table 6.

C[C@@H](N)c1ccc(C(=O)Nc2ccncc2)cc1.Cl [compound of the present invention, (R)-(+)-N-(4-pyridyl)-4-(1-aminoethyl)benzamide HCl] was tested, and the “CI (Combination Index)” value ([1]; compound 0.3 μM + cisplatin 10 μM) was 0.4293, the “CI (Combination Index)” value ([1]; compound 1 μM + cisplatin 10 μM) was 0.4656 and the “CI (Combination Index)” value ([1]; compound 3 μM + cisplatin 10 μM) was 0.4478. The “CI (Combination Index)” value ([1]; compound 10 μM + cisplatin 10 μM) was 0.4403, the “CI (Combination Index)” value ([1]; compound 30 μM + cisplatin 10 μM) was 0.5071 and the “CI (Combination Index)” value ([1]; compound 100 μM + cisplatin 10 μM) was 0.3558. The “average growth suppression rate ± standard error” value ([1]; compound 0.1 (no unit in Table 7; μM in Table 8) alone, 72 hr culture) was 4.389 ± 3.094%, the “average growth suppression rate ± standard error” value ([1]; compound 0.3 (no unit in Table 7; μM in Table 8) alone, 72 hr culture) was 5.196 ± 0.214% and the “average growth suppression rate ± standard error” value ([1]; compound 0.3 in combination with cisplatin 10 μM, 72 hr, NS (p = 0.1293) vs. cisplatin (10 μM) alone) was 17.200 ± 11.245%. The “average growth suppression rate ± standard error” value ([1]; compound 1 (no unit in Table 7; μM in Table 8) alone, 72 hr culture) was 7.877 ± 0.727%, the “average growth suppression rate ± standard error” value ([1]; compound 1 in combination with cisplatin 10 μM, 72 hr, NS (P = 0.1236) vs. cisplatin (10 μM) alone) was 17.319 ± 4.397% and the “average growth suppression rate ± standard error” value ([1]; compound 3 (no unit in Table 7; μM in Table 8) alone, 72 hr culture) was 10.012 ± 1.459%. For the same compound, the “average growth suppression rate ± standard error” value ([1]; compound 3 in combination with cisplatin 10 μM, 72 hr, p = 0.0028 vs. cisplatin (10 μM) alone) was 26.406 ± 8.364%, the “average growth suppression rate ± standard error” value ([1]; compound 10 (no unit in Table 7; μM in Table 8) alone, 72 hr culture) was 10.700 ± 0.365% and the “average growth suppression rate ± standard error” value ([1]; compound 10 in combination with cisplatin 10 μM, 72 hr, p = 0.0000 vs. cisplatin (10 μM) alone) was 43.796 ± 5.446%. For the same compound, the “average growth suppression rate ± standard error” value ([1]; compound 30 (no unit in Table 7; μM in Table 8) alone, 72 hr culture) was 22.657 ± 4.784%, the “average growth suppression rate ± standard error” value ([1]; compound 30 in combination with cisplatin 10 μM, 72 hr, p = 0.0000 vs. cisplatin (10 μM) alone) was 90.320 ± 2.220% and the “average growth suppression rate ± standard error” value ([1]; compound 100 (no unit in Table 7; μM in Table 8) alone, 72 hr culture) was 57.960 ± 8.575%. The “average growth suppression rate ± standard error” value ([1]; compound 100 in combination with cisplatin 10 μM, 72 hr, p = 0.0000 vs. cisplatin (10 μM) alone) was 96.180 ± 0.164%, the “T/C±standard error (average number of pulmonary metastatic colonies of administration group/control group ×100)” value ([2]; Table 1, compound 1 mg/kg oral administration once a day for 14 days, alone) was 77.1 ± 10.0% and the “T/C±standard error (average number of pulmonary metastatic colonies of administration group/control group ×100)” value ([2]; Table 1, compound 1 mg/kg oral once a day for 14 days in combination with cisplatin 5 mg/kg intraperitoneally once) was 13.4 ± 1.4%. The “T/C±standard error (average number of pulmonary metastatic colonies of administration group/control group ×100)” value ([2]; Table 1, compound 1 mg/kg oral once a day for 14 days in combination with cisplatin 10 mg/kg intraperitoneally once, p < 0.01 vs. cisplatin (10 mg/kg) alone) was 19.5 ± 3.0%, the “T/C±standard error (average number of pulmonary metastatic colonies of administration group/control group ×100)” value ([2]; Table 1, compound 3 mg/kg oral administration once a day for 14 days, alone) was 65.2 ± 3.7% and the “T/C±standard error (average number of pulmonary metastatic colonies of administration group/control group ×100)” value ([2]; Table 1, compound 3 mg/kg oral once a day for 14 days in combination with cisplatin 5 mg/kg intraperitoneally once) was 14.4 ± 2.0%. The “T/C±standard error (average number of pulmonary metastatic colonies of administration group/control group ×100)” value ([2]; Table 1, compound 3 mg/kg oral once a day for 14 days in combination with cisplatin 10 mg/kg intraperitoneally once, p < 0.01 vs. cisplatin (10 mg/kg) alone) was 16.5 ± 1.4%, the “T/C±standard error (average number of pulmonary metastatic colonies of administration group/control group ×100)” value ([2]; Table 2, compound 0.3 mg/kg by intraperitoneal osmotic pump (14 days), alone) was 73.4 ± 10.1% and the “T/C±standard error (average number of pulmonary metastatic colonies of administration group/control group ×100)” value ([2]; Table 2, compound 0.3 mg/kg by osmotic pump in combination with cisplatin 10 mg/kg intraperitoneally once) was 12.1 ± 2.1%. For the same compound, the “T/C±standard error (average number of pulmonary metastatic colonies of administration group/control group ×100)” value ([2]; Table 2, compound 1 mg/kg by intraperitoneal osmotic pump (14 days), alone) was 69.9 ± 7.7%, the “T/C±standard error (average number of pulmonary metastatic colonies of administration group/control group ×100)” value ([2]; Table 2, compound 1 mg/kg by osmotic pump in combination with cisplatin 10 mg/kg intraperitoneally once) was 13.0 ± 1.8% and the “T/C±standard error (average number of pulmonary metastatic colonies of administration group/control group ×100)” value ([2]; Table 2, compound 3 mg/kg by intraperitoneal osmotic pump (14 days), alone) was 63.5 ± 7.7%. The “T/C±standard error (average number of pulmonary metastatic colonies of administration group/control group ×100)” value ([2]; Table 2, compound 3 mg/kg by osmotic pump in combination with cisplatin 10 mg/kg intraperitoneally once, P < 0.05 vs. cisplatin (10 mg/kg) alone) was 11.1 ± 1.4%, the “T/C±standard error (average number of pulmonary metastatic colonies of administration group/control group ×100)” value ([2]; Table 4, compound 1 mg/kg oral administration once a day for 14 days, alone) was 83.4 ± 10.8% and the “T/C±standard error (average number of pulmonary metastatic colonies of administration group/control group ×100)” value ([2]; Table 4, compound 1 mg/kg oral in combination with etoposide 5 mg/kg intraperitoneally once a day for 5 days, P < 0.05 vs. etoposide (5 mg/kg) alone) was 22.0 ± 4.8%. The “T/C±standard error (average number of pulmonary metastatic colonies of administration group/control group ×100)” value ([2]; Table 4, compound 3 mg/kg oral administration once a day for 14 days, alone) was 70.5 ± 4.0%, the “T/C±standard error (average number of pulmonary metastatic colonies of administration group/control group ×100)” value ([2]; Table 4, compound 3 mg/kg oral in combination with etoposide 5 mg/kg intraperitoneally once a day for 5 days, P < 0.01 vs. etoposide (5 mg/kg) alone) was 19.2 ± 2.8% and the “T/C±standard error (average number of pulmonary metastatic colonies of administration group/control group ×100)” value ([2]; Table 5, compound 1 mg/kg oral administration once a day for 14 days, alone) was 69.8 ± 9.0%. The “T/C±standard error (average number of pulmonary metastatic colonies of administration group/control group ×100)” value ([2]; Table 5, compound 1 mg/kg oral in combination with paclitaxel 5 mg/kg intraperitoneally once every other day, P < 0.05 vs. paclitaxel (5 mg/kg) alone) was 20.6 ± 2.6%, the “T/C±standard error (average number of pulmonary metastatic colonies of administration group/control group ×100)” value ([2]; Table 5, compound 3 mg/kg oral administration once a day for 14 days, alone) was 59.0 ± 3.3% and the “T/C±standard error (average number of pulmonary metastatic colonies of administration group/control group ×100)” value ([2]; Table 5, compound 3 mg/kg oral in combination with paclitaxel 5 mg/kg intraperitoneally once every other day, P < 0.01 vs. paclitaxel (5 mg/kg) alone) was 16.3 ± 3.0%. The “number of pulmonary metastatic colonies of B16-F10 cells” value (shortened to “number … of B16-F10 cells”) ([2]; combination group with cisplatin as compared to the cisplatin alone administration group (p<0.01 or p<0.05, Dunnett's test)) was “significantly decreased”, the “number … of B16-F10 cells” value ([2]; combination group with etoposide as compared to the etoposide alone administration group (p<0.01 or p<0.05 Dunnett's test)) was “significantly decreased” and the “number … of B16-F10 cells” value ([2]; combination group with paclitaxel as compared to the paclitaxel alone administration group (p<0.01 or p<0.05 Dunnett's test)) was “significantly decreased”. For the same compound, the “CI (Combination Index)” value ([2]; compound 0.3 mg/kg osmotic pump + cisplatin 10 mg/kg) was 0.19, the “CI (Combination Index)” value ([2]; compound 1 mg/kg oral + Etoposide (5 mg/kg)) was 0.42 and the “CI (Combination Index)” value ([2]; compound 1 mg/kg oral + Paclitaxel (5 mg/kg)) was 0.63. The “CI (Combination Index)” value ([2]; compound 1 mg/kg oral administration + cisplatin 10 mg/kg) was 0.12, the “CI (Combination Index)” value ([2]; compound 1 mg/kg osmotic pump + cisplatin 10 mg/kg) was 0.21 and the “CI (Combination Index)” value ([2]; compound 3 mg/kg oral + Etoposide (5 mg/kg)) was 0.34. The “CI (Combination Index)” value ([2]; compound 3 mg/kg oral + Paclitaxel (5 mg/kg)) was 0.34, the “CI (Combination Index)” value ([2]; compound 3 mg/kg oral administration + cisplatin 10 mg/kg) was 0.09 and the “CI (Combination Index)” value ([2]; compound 3 mg/kg osmotic pump + cisplatin 10 mg/kg) was 0.17. For the same compound, the “CI value of the action in concomitant use” value ([2]; compound and cisplatin used in combination, every dose (Table 3)) was “lower than 1”, the “combination index of the action in concomitant use” value ([2]; compound and etoposide used in combination (Table 6)) was “lower than 1” and the “combination index of the action in concomitant use” value ([2]; compound and paclitaxel used in combination (Table 6)) was “lower than 1”.
